From PMC10966990, “Rational design of a cyclohexanone dehydrogenase for enhanced α,β-desaturation and substrate specificity” (Chemical Science, 2024)

What was measured:
[1] = molecular target: T1, cyclohexanone dehydrogenase (CDH) (Alicycliphilus denitrificans, UniProt F4G7N3); assay: DCPIP colour change assay; type: biochemical; settings: 0.25 uM enzyme, 2 mM substrate, 75 uM DCPIP, 20 mM Tris-HCl pH 7.8
T1 construct: gene Alide2_4318; full gene in pET28a, N-terminal His6 tag, E. coli BL21(DE3); dimer
Target sequence in this assay (F4G7N3 entry or part of it W94A, form open): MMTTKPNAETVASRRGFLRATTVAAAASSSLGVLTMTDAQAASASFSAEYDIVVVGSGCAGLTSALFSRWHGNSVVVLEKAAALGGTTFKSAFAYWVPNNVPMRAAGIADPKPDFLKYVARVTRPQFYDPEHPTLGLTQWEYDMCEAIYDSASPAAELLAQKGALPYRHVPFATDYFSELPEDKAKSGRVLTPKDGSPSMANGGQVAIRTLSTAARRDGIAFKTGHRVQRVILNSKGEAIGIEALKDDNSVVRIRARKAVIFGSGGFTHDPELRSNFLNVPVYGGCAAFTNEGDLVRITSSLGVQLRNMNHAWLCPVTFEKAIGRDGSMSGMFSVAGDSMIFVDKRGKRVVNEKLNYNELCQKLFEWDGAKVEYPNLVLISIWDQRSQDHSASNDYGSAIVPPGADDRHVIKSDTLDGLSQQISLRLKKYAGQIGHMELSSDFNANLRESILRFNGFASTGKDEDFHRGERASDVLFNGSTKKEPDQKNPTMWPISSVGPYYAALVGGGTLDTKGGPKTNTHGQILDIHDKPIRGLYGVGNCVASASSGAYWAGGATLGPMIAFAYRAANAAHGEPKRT

[2] = molecular target: T2, cyclohexanone dehydrogenase (CDH) (Alicycliphilus denitrificans, UniProt F4G7N3, Y176F, form not given); assay: X-ray crystal structure, […] A; type: binding; settings: crystals grown with 10 mM cyclohexanone; product modelled in active site next to FAD, further molecules elsewhere
T2 construct: gene Alide2_4318; full gene in pET28a, N-terminal His6 tag, E. coli BL21(DE3); dimer
T2 sequence (F4G7N3 entry or part of it Y176F, form open): as the sequence (F4G7N3 entry or part of it W94A, form open) above, with A94W, Y176F counted along it

[3] = molecular target: T1, cyclohexanone dehydrogenase (CDH); assay: X-ray crystal structure, […] A; type: binding; settings: covalent; C8M of FAD 1.84 A from S-gamma of Cys305
[4] = substrate: CC1(C)CCC(=O)CC1; assay: purified protein; settings: pH 7.8
[5] = substrate: O=C1CCCCC1; assay: DCPIP reduction assay, Michaelis-Menten; type: biochemical, Alicycliphilus denitrificans; settings: 76 nM enzyme, 60 uM DCPIP, 20 mM Tris-HCl pH 7.8
[6] = substrate: CC1CCCC(=O)C1; assay: DCPIP reduction assay, Michaelis-Menten; type: biochemical, Alicycliphilus denitrificans; settings: 76 nM enzyme, 60 uM DCPIP, 20 mM Tris-HCl pH 7.8, low aqueous solubility of substrate, caution stated

Molecule: CC1CCCC(=O)C1 (stereo not shown) [compound 2, 3-methylcyclohexanone]
- DCPIP colour change assay [1]: The W113A variant showed highest activity on 3-methylcyclohexanone

Molecule: O=C1CCc2ccccc2O1 [compound 5, dihydrocoumarin]
- DCPIP colour change assay [1]: the W113A variant, but not WT CDH, with dihydrocoumarin

Molecule: O=C1C=CCCC1 [compound 10, 2-cyclohexen-1-one]
- X-ray crystal structure, 1.33 A [2]: 2-cyclohexen-1-one was subsequently modelled to produce the Y195F complex structure

Molecule: Cc1cc2nc3c(=O)[nH]c(=O)nc-3n(C[C@H](O)[C@H](O)[C@H](O)COP(=O)(O)OP(=O)(O)OC[C@H]3O[C@@H](n4cnc5c(N)ncnc54)[C@H](O)[C@@H]3O)c2cc1C [flavin adenine dinucleotide]
- X-ray crystal structure, 1.86 A [3]: The FAD cofactor was found to occupy a deep positively charged channel

B1: cyclohexanone dehydrogenase (CDH) (Alicycliphilus denitrificans K601) (protein)
chain: MMTTKPNAETVASRRGFLRATTVAAAASSSLGVLTMTDAQAASASFSAEYDIVVVGSGCAGLTSALFSRWHGNSVVVLEKAAALGGTTFKSAFWYWVPNNVPMRAAGIADPKPDFLKYVARVTRPQFYDPEHPTLGLTQWEYDMCEAIYDSASPAAELLAQKGALPYRHVPFATDYFSELPEDKAKSGRVLTPKDGSPSMANGGQVAIRTLSTAARRDGIAFKTGHRVQRVILNSKGEAIGIEALKDDNSVVRIRARKAVIFGSGGFTHDPELRSNFLNVPVYGGCAAFTNEGDLVRITSSLGVQLRNMNHAWLCPVTFEKAIGRDGSMSGMFSVAGDSMIFVDKRGKRVVNEKLNYNELCQKLFEWDGAKVEYPNLVLISIWDQRSQDHSASNDYGSAIVPPGADDRHVIKSDTLDGLSQQISLRLKKYAGQIGHMELSSDFNANLRESILRFNGFASTGKDEDFHRGERASDVLFNGSTKKEPDQKNPTMWPISSVGPYYAALVGGGTLDTKGGPKTNTHGQILDIHDKPIRGLYGVGNCVASASSGAYWAGGATLGPMIAFAYRAANAAHGEPKRT
notes: full gene in pET28a, N-terminal His6 tag, E. coli BL21(DE3); dimer
- Km [4]: 25.62 ± 7.68 mM
- Km [5]: 0.37 ± 0.04 mM
- Km [6]: 9.31 ± 1.99 mM
